Experimental data published in patent publication US10117430B2, “Malononitrile compounds for controlling animal pests” (BASF SE, priority 2012, dated 2018).

Legend:
Type in all cases: in vivo
[1] = test system: Orchid Thrips (Dichromothrips corbetti); experiment: B.4 Orchid thrips floral-immersion test; details: 96 h, in comparison with untreated controls, after 4 days
Description: B.4 Orchid Thrips (Dichromothrips Corbetti)
Dichromothrips corbetti adults used for bioassay are obtained from a colony maintained continuously under laboratory conditions. For testing purposes, the test compound is diluted to a concentration of 300 ppm (wt compound: vol diluent) in a 1:1 mixture of acetone:water (vol:vol), plus 0.01% vol/vol Kinetic® surfactant. Thrips potency of each compound is evaluated by using a floral-immersion technique. Plastic petri dishes are used as test arenas. All petals of individual, intact orchid flowers are dipped into treatment solution and allowed to dry. Treated flowers are placed into individual petri dishes along with 10-15 adult thrips. The petri dishes are then covered with lids. All test arenas are held under continuous light and a temperature of about 28° C. for duration of the assay. After 4 days, the numbers of live thrips are counted on each flower, and along inner walls of each petri dish. The level of thrips mortality is extrapolated from pre-treatment thrips numbers.

[2] = test system: Yellow Fever Mosquito (Aedes aegypti); experiment: whole plant or invertebrate; details: 48 h, in comparison with untreated controls, larval mortality after 2 days
Description: B.12 Yellow Fever Mosquito (Aedes aegypti)
For evaluating control of yellow fever mosquito (Aedes aegypti) the test unit consisted of 96-well-microtiter plates containing 200 μl of tap water per well and 5-15 freshly hatched A. aegypti larvae. The compounds or mixtures were formulated using a solution containing 75% water and 25% DMSO. Different concentrations of formulated compounds or mixtures were sprayed onto the insect diet at 2.5 μl, using a custom built micro atomizer, at two replications. After application, microtiter plates were incubated at 28±1° C., 80±5% relative humidity for 2 days. Larval mortality was then visually assessed.

[3] = test system: Rice brown plant hopper (Nilaparvata lugens); experiment: B.11 Rice brown plant hopper test on sprayed rice seedlings; details: in comparison with untreated controls, after 72 hours
Description: B.11 Rice brown plant hopper (Nilaparvata lugens)
Rice seedlings were cleaned and washed 24 hours before spraying. The active compounds were formulated in 50:50 acetone:water (vol:vol) and 0.1% vol/vol surfactant (EL 620) was added. Potted rice seedlings were sprayed with 5 ml test solution, air dried, placed in cages and inoculated with 10 adults. Treated rice plants were kept at about 28-29° C. and relative humidity of about 50-60%. Percent mortality was recorded after 72 hours.

[4] = test system: Green Soldier Stink Bug (Nezara viridula); experiment: B.15 Green soldier stink bug test on sprayed soybean pods; details: 120 h, in comparison with untreated controls, after 5 days
Description: B.15 Green Soldier Stink Bug (Nezara viridula)
The active compound is dissolved at the desired concentration in a mixture of 1:1 (vol:vol) distilled water:aceteone. Surfactant (Kinetic HV) is added at a rate of 0.01% (vol/vol). The test solution is prepared at the day of use. Soybean pods were placed in microwavable plastic cups lined with moist filter paper and inoculated with ten 3rd instar N. viridula. Using a hand atomizer, an approximately 2 ml solution is sprayed into each cup. Treated cups were kept at about 28-29° C. and relative humidity of about 50-60%. Percent mortality was recorded after 5 days.

[5] = test system: Cowpea Aphid (Aphis craccivora); experiment: B.1 Cowpea aphid spray test on potted cowpea plants; details: in comparison with untreated controls, population reduction assessed after 24, 72 and 120 hours
Description: B.1 Cowpea Aphid (Aphis craccivora)
The active compounds were formulated in 50:50 (v/v) acetone:water. The test solution was prepared at the day of use. Potted cowpea plants colonized with approximately 100-150 aphids of various stages were sprayed after the pest population has been recorded. Population reduction was assessed after 24, 72, and 120 hours.

[6] = test system: Green Peach Aphid (Myzus persicae); experiment: B.3 Green peach aphid systemic test, artificial diet under membrane; details: 72 h, concentration of the test solution 2500 mg/L, 3 days
Text: B.3 Green Peach Aphid (Myzus persicae)
For evaluating control of green peach aphid (Myzus persicae) through systemic means the test unit consisted of 96-well-microtiter plates containing liquid artificial diet under an artificial membrane. The compounds were formulated using a solution containing 75% v/v water and 25% v/v DMSO. Different concentrations of formulated compounds were pipetted into the aphid diet, using a custom built pipetter, at two replications. After application, 5-8 adult aphids were placed on the artificial membrane inside the microtiter plate wells. The aphids were then allowed to suck on the treated aphid diet and incubated at about 23±1° C. and about 50±5% relative humidity for 3 days. Aphid mortality and fecundity was then visually assessed.

[7] = test system: Silverleaf Whitefly (Bemisia argentifolii); experiment: B.5 Silverleaf whitefly test on sprayed cotton plants; details: 72 h, in comparison with untreated controls, 3 days after treatment
Description: B.5 Silverleaf Whitefly (Bemisia argentifolii)
The active compounds were formulated in cyclohexanone as a 10,000 ppm solution supplied in 1.3 ml ABgene® tubes. These tubes were inserted into an automated electrostatic sprayer equipped with an atomizing nozzle and they served as stock solutions for which lower dilutions were made in 50% acetone:50% water (v/v). A nonionic surfactant (Kinetic®) was included in the solution at a volume of 0.01% (v/v). Cotton plants at the cotyledon stage (one plant per pot) were sprayed by an automated electrostatic plant sprayer equipped with an atomizing spray nozzle. The plants were dried in the sprayer fume hood and then removed from the sprayer. Each pot was placed into a plastic cup and 10 to 12 whitefly adults (approximately 3-5 days old) were introduced. The insects were collected using an aspirator and 0.6 cm, nontoxic Tygon® tubing (R-3603) connected to a barrier pipette tip. The tip, containing the collected insects, was then gently inserted into the soil containing the treated plant, allowing insects to crawl out of the tip to reach the foliage for feeding. Cups were covered with a reusable screened lid (150-micron mesh polyester screen PeCap from Tetko, Inc.). Test plants were maintained in a growth room at 25° C. and 20-40% relative humidity for 3 days, avoiding direct exposure to fluorescent light (24 hour photoperiod) to prevent trapping of heat inside the cup. Mortality was assessed 3 days after treatment, compared to untreated control plants.

[8] = test system: Boll Weevil (Anthonomus grandis); experiment: B.9 Boll weevil microtiter diet test, egg and larval mortality; details: 120 h, in comparison with untreated controls, egg and larval mortality after 5 days
Description: B.9 Boll Weevil (Anthonomus grandis)
For evaluating control of boll weevil (Anthonomus grandis) the test unit consisted of 24-well-microtiter plates containing an insect diet and 20-30 A. grandis eggs. The compounds were formulated using a solution containing 75% v/v water and 25% v/v DMSO. Different concentrations of formulated compounds were sprayed onto the insect diet at 20 μl, using a custom built micro atomizer, at two replications. After application, microtiter plates were incubated at about 23±1° C. and about 50±5% relative humidity for 5 days. Egg and larval mortality was then visually assessed.

[9] = test system: Vetch Aphid (Megoura viciae); experiment: B.7 Vetch aphid test on broad bean leaf disks; details: foliar, 120 h, in comparison with untreated controls, 5 days
Description: B.7 Vetch Aphid (Megoura viciae)
For evaluating control of vetch aphid (Megoura viciae) through contact or systemic means the test unit consisted of 24-well-microtiter plates containing broad bean leaf disks. The compounds were formulated using a solution containing 75% v/v water and 25% v/v DMSO. Different concentrations of formulated compounds were sprayed onto the leaf disks at 2.5 μl, using a custom built micro atomizer, at two replications. After application, the leaf disks were air-dried and 5-8 adult aphids placed on the leaf disks inside the microtiter plate wells. The aphids were then allowed to suck on the treated leaf disks and incubated at about 23±1° C. and about 50±5% relative humidity for 5 days. Aphid mortality and fecundity was then visually assessed.

[10] = test system: Mediterranean Fruitfly (Ceratitis capitata); experiment: B.2 Mediterranean fruitfly microtiter diet test, egg and larval mortality; details: 120 h, in comparison with untreated controls, egg and larval mortality after 5 days
Description: B.2 Mediterranean Fruitfly (Ceratitis capitata)
For evaluating control of Mediterranean fruitfly (Ceratitis capitata) the test unit consisted of microtiter plates containing an insect diet and 50-80 C. capitata eggs. The compounds were formulated using a solution containing 75% v/v water and 25% v/v DMSO. Different concentrations of formulated compounds were sprayed onto the insect diet at 5 μl, using a custom built micro atomizer, at two replications. After application, microtiter plates were incubated at about 28±1° C. and about 80±5% relative humidity for 5 days. Egg and larval mortality was then visually assessed.

N#CC(C#N)(Cc1ccc(C(F)(F)F)nc1)c1cc(F)cc(C(F)(F)F)c1 [II-46]
≥ 75%: mortality at 500 ppm [1] | mortality at 2500 ppm [2]

N#CC(C#N)(Cc1ccc(C(F)(F)F)nc1)c1cc(C(F)(F)F)cc(C(F)(F)F)c1 [II-54]
≥ 75%: mortality at 2500 ppm [2]

N#CC(C#N)(Cc1ccc(C(F)(F)F)cn1)c1cccc(F)c1F [II-49]
≥ 75%: mortality at 500 ppm [1] | mortality at 300 ppm [3] | mortality at 500 ppm [4]

N#CC(C#N)(Cc1ccc(C(F)(F)F)nn1)c1cccc(F)c1 [II-15]
≥ 75%: mortality at 500 ppm [5] | mortality at 2500 µg/mL [6] | mortality at 500 ppm [1] | mortality at 500 ppm [7] | mortality at 2500 ppm [8] | mortality at 2500 ppm [2]

N#CC(C#N)(Cc1ncc(C(F)(F)F)cn1)c1cccc(F)c1 [II-18]
≥ 75%: mortality at 2500 µg/mL [6] | mortality at 500 ppm [1] | mortality at 500 ppm [7] | mortality at 2500 ppm [9] | mortality at 2500 ppm [8] | mortality at 2500 ppm [2]

N#CC(C#N)(Cc1ccc(C(F)(F)F)nn1)c1ccccc1 [II-13]
≥ 75%: mortality at 2500 µg/mL [6] | mortality at 500 ppm [7] | mortality at 2500 ppm [8] | mortality at 2500 ppm [2]

C#Cc1ccc(C(C#N)(C#N)Cc2ccc(C(F)(F)F)nc2)cc1 [II-1]
≥ 75%: mortality at 500 ppm [7] | mortality at 2500 ppm [8] | mortality at 300 ppm [3]

COc1cccc(C(C#N)(C#N)Cc2ccc(C(F)(F)F)cn2)c1 [II-39]
≥ 75%: mortality at 2500 µg/mL [6]

N#CC(C#N)(Cc1ccc(F)cn1)c1ccc(F)cc1 [II-12]
≥ 75%: mortality at 500 ppm [7]

N#CC(C#N)(Cc1cnc(C(F)(F)F)nc1)c1ccc(F)cc1 [II-23]
≥ 75%: mortality at 500 ppm [5] | mortality at 2500 ppm [10] | mortality at 2500 µg/mL [6] | mortality at 500 ppm [1] | mortality at 500 ppm [7] | mortality at 2500 ppm [9] | mortality at 2500 ppm [8] | mortality at 300 ppm [3] | mortality at 2500 ppm [2]

N#CC(C#N)(Cc1ccc(C(F)(F)F)cn1)c1ccccc1F [II-36]
≥ 75%: mortality at 500 ppm [7] | mortality at 2500 ppm [8] | mortality at 300 ppm [3] | mortality at 2500 ppm [2]

Cc1cccc(C(C#N)(C#N)Cc2ccc(C(F)(F)F)cn2)c1 [II-37]
≥ 75%: mortality at 2500 ppm [2]

N#CC(C#N)(Cc1ccc(C(F)(F)F)nc1)c1ccc(Cl)cc1 [II-2]
≥ 75%: mortality at 500 ppm [5] | mortality at 500 ppm [1] | mortality at 500 ppm [7] | mortality at 2500 ppm [8] | mortality at 2500 ppm [2]

N#CC(C#N)(Cc1ccc(C(F)(F)F)cn1)c1cc(C(F)(F)F)cc(C(F)(F)F)c1 [II-60]
≥ 75%: mortality at 2500 ppm [2]

N#CC(C#N)(Cc1ccc(Br)cn1)c1ccc(F)cc1 [II-10, 2-[(5-bromo-2-pyridyl)methyl]-2-(4-fluorophenyl)propanedinitrile]
≥ 75%: mortality at 500 ppm [1] | mortality at 2500 ppm [8] | mortality at 300 ppm [3]

N#CC(C#N)(Cc1ccccn1)c1ccccc1 [II-29]
≥ 75%: mortality at 2500 ppm [2]

N#CC(C#N)(Cc1ccc(C(F)(F)F)nc1)c1ccccc1F [II-24]
≥ 75%: mortality at 500 ppm [1] | mortality at 500 ppm [7] | mortality at 2500 ppm [8] | mortality at 300 ppm [3] | mortality at 2500 ppm [2]

Cc1cccc(CC(C#N)(C#N)c2cc(F)c(F)c(F)c2)n1 [II-65]
≥ 75%: mortality at 500 ppm [1] | mortality at 2500 ppm [8] | mortality at 300 ppm [3] | mortality at 2500 ppm [2] | mortality at 500 ppm [4]

Cc1cccc(C(C#N)(C#N)Cc2ccc(C(F)(F)F)nc2)c1 [II-22]
≥ 75%: mortality at 300 ppm [3]

Cc1cc(C)cc(C(C#N)(C#N)Cc2ccc(C(F)(F)F)cn2)c1 [II-47]
≥ 75%: mortality at 500 ppm [5] | mortality at 2500 ppm [2]

N#CC(C#N)(Cc1cnc(C(F)(F)F)cn1)c1ccc(F)cc1 [II-27]
≥ 75%: mortality at 2500 ppm [10] | mortality at 500 ppm [1] | mortality at 500 ppm [7] | mortality at 2500 ppm [9] | mortality at 2500 ppm [8] | mortality at 300 ppm [3] | mortality at 2500 ppm [2]

N#CC(C#N)(Cc1c(Cl)cncc1Cl)c1cc(F)c(F)c(F)c1 [II-66]
≥ 75%: mortality at 2500 ppm [9] | mortality at 2500 ppm [2]
